For the test, the target named is T1, F508delCFTR cell surface expression in CFBE41o-F508delCFTR-HRP cells (Homo sapiens, UniProt P13569, DEL508-508).
T1 construct: fused on or other part: Horseradish peroxidase (HRP) reporter inserted in the fourth exofacial (extracellular) loop of CFTR; expression is doxycycline-inducible
The experiment in a line: Cell Surface Expression-Horse Radish Peroxidase (CSE-HRP) Assay. In kind it is cell-based. As to conditions: for EC50: CFBE41o-F508delCFTR-HRP cells, 18-24 hours at 33° C., 8-point curve, highest concentration 20 μM; for Maximum % activity (%): maximum at any tested concentration, normalized to on-plate positive control (3 μM). In outline:
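Correctors incubated 18-24 h at 33 °C on doxycycline-induced (0.5 μg/mL, 72 h) CFBE41o-F508delCFTR-HRP cells, 3-fold series from 20 μM. After DPBS washes, luminol luminescence read; activity expressed relative to DMSO and a 3 μM positive control, EC50 fitted from triplicate plates.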

Some results are limits rather than exact numbers.

A word on the EC50: it is the concentration that produces a half-maximal response.

T1 sequence (P13569 with tags, fused parts or gaps DEL508-508 limits assumed): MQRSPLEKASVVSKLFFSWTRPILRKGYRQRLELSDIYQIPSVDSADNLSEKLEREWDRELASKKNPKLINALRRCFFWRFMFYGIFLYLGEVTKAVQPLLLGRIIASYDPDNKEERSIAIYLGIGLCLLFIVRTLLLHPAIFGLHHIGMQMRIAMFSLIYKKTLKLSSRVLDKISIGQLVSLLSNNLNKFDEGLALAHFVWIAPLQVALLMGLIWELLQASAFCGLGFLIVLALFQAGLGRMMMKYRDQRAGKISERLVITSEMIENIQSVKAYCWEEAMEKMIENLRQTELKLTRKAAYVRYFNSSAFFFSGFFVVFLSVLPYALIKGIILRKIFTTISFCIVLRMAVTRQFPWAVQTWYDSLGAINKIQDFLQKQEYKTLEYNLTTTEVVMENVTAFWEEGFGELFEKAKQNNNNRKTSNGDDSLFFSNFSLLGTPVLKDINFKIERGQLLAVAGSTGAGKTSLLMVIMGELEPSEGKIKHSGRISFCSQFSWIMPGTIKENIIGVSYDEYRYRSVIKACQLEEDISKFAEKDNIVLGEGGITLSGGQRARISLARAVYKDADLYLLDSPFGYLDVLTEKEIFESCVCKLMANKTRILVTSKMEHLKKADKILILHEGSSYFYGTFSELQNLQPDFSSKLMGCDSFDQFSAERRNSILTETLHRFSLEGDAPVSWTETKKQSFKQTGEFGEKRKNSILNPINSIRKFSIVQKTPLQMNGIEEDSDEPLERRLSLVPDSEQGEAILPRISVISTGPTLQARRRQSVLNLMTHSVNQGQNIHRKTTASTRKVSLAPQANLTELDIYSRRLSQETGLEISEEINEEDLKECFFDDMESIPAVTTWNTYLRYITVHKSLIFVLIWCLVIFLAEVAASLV
T1 sequence (P13569 919-1480 limits assumed, stated change not applied): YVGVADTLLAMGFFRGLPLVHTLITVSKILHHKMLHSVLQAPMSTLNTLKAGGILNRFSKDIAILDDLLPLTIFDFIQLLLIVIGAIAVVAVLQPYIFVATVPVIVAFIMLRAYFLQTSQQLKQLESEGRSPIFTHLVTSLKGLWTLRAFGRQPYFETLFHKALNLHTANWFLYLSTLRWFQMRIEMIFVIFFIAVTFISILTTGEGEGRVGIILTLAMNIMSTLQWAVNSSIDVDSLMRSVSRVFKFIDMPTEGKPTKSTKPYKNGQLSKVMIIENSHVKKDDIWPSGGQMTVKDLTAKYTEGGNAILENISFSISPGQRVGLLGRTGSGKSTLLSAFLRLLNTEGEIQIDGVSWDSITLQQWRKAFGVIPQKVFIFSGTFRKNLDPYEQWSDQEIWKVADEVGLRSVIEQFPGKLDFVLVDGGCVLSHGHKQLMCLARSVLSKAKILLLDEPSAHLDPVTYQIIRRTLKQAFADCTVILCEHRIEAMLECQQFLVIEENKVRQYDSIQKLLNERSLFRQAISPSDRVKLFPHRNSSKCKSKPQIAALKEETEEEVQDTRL

Consider `Cc1c(C(=O)O)ncn1-c1ccc(C(F)(F)F)cc1NC(=O)C1(C)COc2cc3c(cc21)OC(F)(F)O3` (centres unmarked) [Example 62, 1-{2-[(2,2-difluoro-7-methyl-6,7-dihydro-2H-furo[2,3-f][1,3]benzodioxole-7-carbonyl)amino]-4-(trifluoromethyl)phenyl}-5-methyl-1H-imidazole-4-carboxylic acid], for which the EC50 is over 20 µM and the “Maximum % activity (%)” value is 12%.

As for `CC1(C(=O)Nc2nc(-c3ccc(C#N)cc3)cs2)COc2cc3c(cc21)OC(F)(F)O3` (centres unmarked) [Example 63, N-[4-(4-cyanophenyl)-1,3-thiazol-2-yl]-2,2-difluoro-7-methyl-6,7-dihydro-2H-furo[2,3-f][1,3]benzodioxole-7-carboxamide], the EC50 came out at 8.64 µM and the “Maximum % activity (%)” value turned out to be 41%.

Take `COC(=O)c1ccc(-c2csc(NC(=O)C3(C)COc4cc5c(cc43)OC(F)(F)O5)n2)cc1` (centres unmarked) [Example 64, methyl 4-{2-[(2,2-difluoro-7-methyl-6,7-dihydro-2H-furo[2,3-f][1,3]benzodioxole-7-carbonyl)amino]-1,3-thiazol-4-yl}benzoate]: a half-maximal response (EC50) required 7.29 µM and the “Maximum % activity (%)” value is 46%.

On to `CC1(C(=O)Nc2cccc(C(=O)NC[C@@H](O)CO)n2)COc2cc3c(cc21)OC(F)(F)O3` (stereo partly drawn) [Example 65, 6-[(2,2-difluoro-7-methyl-6,7-dihydro-2H-furo[2,3-f][1,3]benzodioxole-7-carbonyl)amino]-N-[(2R)-2,3-dihydroxypropyl]pyridine-2-carboxamide], for which the EC50 was over 20 µM and the “Maximum % activity (%)” value amounted to 1%.

As for `COC(=O)c1ccc(-c2cccc(NC(=O)C3(C)COc4cc5c(cc43)OC(F)(F)O5)c2)cc1` (centres unmarked) [Example 66, methyl 3′-[(2,2-difluoro-7-methyl-6,7-dihydro-2H-furo[2,3-f][1,3]benzodioxole-7-carbonyl)amino][1,1′-biphenyl]-4-carboxylate], the EC50 was found to be 4.11 µM and the “Maximum % activity (%)” value came out at 160%.

`CC1(C(=O)Nc2cccc(F)n2)COc2cc3c(cc21)OC(F)(F)O3` (centres unmarked) [Example 67, 2,2-difluoro-N-(6-fluoropyridin-2-yl)-7-methyl-6,7-dihydro-2H-furo[2,3-f][1,3]benzodioxole-7-carboxamide]: the midpoint of the response, the EC50, lay at 8.39 µM and the “Maximum % activity (%)” value worked out at 70%.

`CC1(C(=O)Nc2nc(-c3ccc(C(=O)O)cc3)cs2)COc2cc3c(cc21)OC(F)(F)O3` (centres unmarked) [Example 68, 4-{2-[(2,2-difluoro-7-methyl-6,7-dihydro-2H-furo[2,3-f][1,3]benzodioxole-7-carbonyl)amino]-1,3-thiazol-4-yl}benzoic acid]: the EC50 worked out at 4.47 µM and the “Maximum % activity (%)” value is on record as 44%.

In the case of `CC1(C(=O)Nc2cccc(-c3ccc(C(=O)O)cc3)c2)COc2cc3c(cc21)OC(F)(F)O3` (centres unmarked) [Example 69, 3′-[(2,2-difluoro-7-methyl-6,7-dihydro-2H-furo[2,3-f][1,3]benzodioxole-7-carbonyl)amino][1,1′-biphenyl]-4-carboxylic acid], the EC50 was found to be 1.39 µM and the “Maximum % activity (%)” value is on record as 183%.

On to `COC(=O)C1CCN(c2cccc(NC(=O)C3(C)COc4cc5c(cc43)OC(F)(F)O5)n2)CC1` (centres unmarked) [Example 70, methyl 1-{6-[(2,2-difluoro-7-methyl-6,7-dihydro-2H-furo[2,3-f][1,3]benzodioxole-7-carbonyl)amino]pyridin-2-yl}piperidine-4-carboxylate], for which the midpoint of the response, the EC50, lay at 1.3 µM and the “Maximum % activity (%)” value is 116%.

Regarding `CC1(C(=O)Nc2cccc(N3CCC(C(=O)O)CC3)n2)COc2cc3c(cc21)OC(F)(F)O3` (centres unmarked) [Example 71, 1-{6-[(2,2-difluoro-7-methyl-6,7-dihydro-2H-furo[2,3-f][1,3]benzodioxole-7-carbonyl)amino]pyridin-2-yl}piperidine-4-carboxylic acid], the response was half-maximal at 1.23 µM (EC50) and the “Maximum % activity (%)” value is 128%.

For the origin of these results see US9840513B2 (AbbVie S.à.r.l., priority 2015, dated 2017).
